Source: ChEMBL document CHEMBL1156236, “Trypanoside, anti-tuberculosis, leishmanicidal, and cytotoxic activities of tetrahydrobenzothienopyrimidines” (Bioorg Med Chem, 2010)

Tests used:
Leishmania amazonensis = test: Antileishmanial activity against Leishmania amazonensis MHOM/BR/76/LTB-012 amastigotes infected BALB/c mouse macrophages after 48 hrs by MTT assay; format: functional, organism-based; conditions: MHOM/BR/76/LTB-012, 48 h
Malme-3M = test: Cytotoxicity against human MALME-3M cells; format: functional
TK-10 = test: Cytotoxicity against human TK10 cells; format: functional
Leishmania braziliensis = test: Antileishmanial activity against Leishmania braziliensis MHOM/PE/PER006 promastigote infected BALB/c mouse macrophages after 48 hrs by Giemsa staining method; format: functional, organism-based; conditions: MHOM/PE/PER006, 48 h
K562 = test: Cytotoxicity against human K562 cells; format: functional
MDA-MB-231 = test: Cytotoxicity against human MDA-MB-231 cells; format: functional
BT-549 = test: Cytotoxicity against human BT549 cells; format: functional
[1] = Cytotoxicity against human […] cells; format: functional
T47D = test: Cytotoxicity against human T47D cells; format: functional
OVCAR-4 = test: Cytotoxicity against human OVCAR4 cells; format: functional
[2] = Cytotoxicity against human Hs 578T cells; format: functional
EKVX = test: Cytotoxicity against human EKVX cells; format: functional
HCT-15 = test: Cytotoxicity against human HCT15 cells; format: functional
MDA-MB-435 = test: Cytotoxicity against human MDA-MB-435 cells; format: functional
HL-60(TB) = test: Cytotoxicity against human HL-60(TB) cells; format: functional
HCT-116 = test: Cytotoxicity against human HCT116 cells; format: functional
SR = test: Cytotoxicity against human SR cells; format: functional
OVCAR-3 = test: Cytotoxicity against human OVCAR-3 cells; format: functional
SF-295 = test: Cytotoxicity against human SF295 cells; format: functional
RXF 393 = test: Cytotoxicity against human RXF393 cells; format: functional
NCI-H322M = test: Cytotoxicity against human NCI-H322M cells; format: functional
SNB-75 = test: Cytotoxicity against human SNB75 cells; format: functional
Trypanosoma cruzi = test: Antitrypanosomal activity against Trypanosoma cruzi tulahuen C4 trypomastigotes infected in african green monkey Vero cells assessed as CPRG cleavage after 120 hrs by microplate reader; format: functional, organism-based
[3] = Cytotoxicity against BALB mouse 3T3 cells; format: cell-based; conditions: BALB 3T3 cells
NCI/ADR-RES = test: Cytotoxicity against human NCI/ADR-RES cells; format: functional
MCF7 = test: Cytotoxicity against human MCF7 cells; format: functional
[4] = read-out: LC50 (the source's name)

## C(=N\Nc1ncnc2sc3c(c12)CCCC3)/c1ccccn1
Leishmania amazonensis
  IC50: 0.5 µM
Malme-3M
  GI50: 0.275 µM
  TGI: 10.3 µM
Malme-3M; [4]
  CC50: 51.4 µM
TK-10
  GI50: 0.486 µM
  TGI: 56.6 µM
TK-10; [4]
  CC50: > 100 µM
Leishmania braziliensis
  IC50: 0.6 µM
K562
  GI50: 0.16 µM
  TGI: 10.8 µM
K562; [4]
  CC50: > 100 µM
MDA-MB-231
  GI50: 0.603 µM
  TGI: 29.7 µM
MDA-MB-231; [4]
  CC50: > 100 µM
BT-549
  GI50: 0.394 µM
  TGI: 28.7 µM
BT-549; [4]
  CC50: > 100 µM
[1]
  GI50: 0.35 µM
  TGI: 12.5 µM
[1]; [4]
  CC50: > 100 µM
T47D
  GI50: 0.0764 µM
  TGI: 28 µM
T47D; [4]
  CC50: > 100 µM
OVCAR-4
  GI50: 0.431 µM
  TGI: 26.3 µM
OVCAR-4; [4]
  CC50: > 0.1 µM
[2]
  GI50: 0.748 µM
  TGI: 23.9 µM
[2]; [4]
  CC50: > 100 µM
EKVX
  GI50: 0.317 µM
  TGI: 20.5 µM
EKVX; [4]
  CC50: > 100 µM
HCT-15
  GI50: 0.45 µM
  TGI: 27 µM
HCT-15; [4]
  CC50: > 100 µM
MDA-MB-435
  GI50: 0.477 µM
  TGI: 25.1 µM
MDA-MB-435; [4]
  CC50: > 100 µM
HL-60(TB)
  GI50: 0.12 µM
  TGI: 0.407 µM
HL-60(TB); [4]
  CC50: > 100 µM
HCT-116
  GI50: 0.166 µM
  TGI: 14.2 µM
HCT-116; [4]
  CC50: 67.4 µM
SR
  GI50: 0.368 µM
  TGI: 0.953 µM
SR; [4]
  CC50: > 100 µM
OVCAR-3
  GI50: 0.109 µM
  TGI: 14.5 µM
OVCAR-3; [4]
  CC50: 43.9 µM
SF-295
  GI50: 0.313 µM
  TGI: 12.1 µM
SF-295; [4]
  CC50: > 100 µM
RXF 393
  GI50: 0.423 µM
  TGI: 10.6 µM
RXF 393; [4]
  CC50: 45.3 µM
NCI-H322M
  GI50: 0.216 µM
  TGI: 35 µM
NCI-H322M; [4]
  CC50: > 100 µM
SNB-75
  GI50: 0.585 µM
  TGI: 14.7 µM
SNB-75; [4]
  CC50: 49.3 µM
Trypanosoma cruzi
  IC50: 3.9 µM
[3]
  GI50: 0.04 µM
NCI/ADR-RES
  GI50: 0.427 µM
  TGI: 58.1 µM
NCI/ADR-RES; [4]
  CC50: > 0.1 µM
MCF7
  GI50: 0.09 µM
  TGI: 15.3 µM
MCF7; [4]
  CC50: 80 µM
